Experiments:
Test in all cases: 33PanQinase kinome-wide selectivity profile (Reaction Biology)
Assay type in all cases: biochemical
[1] = biological target: T1, 350 wild-type kinases (Homo sapiens, UniProt P42684); conditions: kinase ABL2, ATP 0,3 µM, singlicate
T1 construct: purchased Reaction Biology (assay service)
Procedure: (§1) Compound RN341 was tested at two concentrations of 1 and 10 μM against a panel of 350 wild-type kinases in the ^33PanQinase assay. The assay was performed by Reaction Biology (www.reactionbiology.com/services/kinase-assays/kinase-panel-screening/).

[2] = biological target: T2, 350 wild-type kinases (Homo sapiens, UniProt O00311); conditions: kinase CDC7/DBF4, ATP 0,1 µM, singlicate
T2 construct: purchased Reaction Biology (assay service)
Procedure: as §1

[3] = biological target: T3, 350 wild-type kinases (Homo sapiens, UniProt O00238); conditions: kinase BMPR1B, ATP 3 µM, singlicate
T3 construct: purchased Reaction Biology (assay service)
Procedure: as §1

[4] = biological target: T4, 350 wild-type kinases (Homo sapiens, UniProt O94921); conditions: kinase CDK14/CycY, ATP 0,1 µM, singlicate
T4 construct: purchased Reaction Biology (assay service)
Procedure: as §1

[5] = biological target: T5, 350 wild-type kinases (Homo sapiens, UniProt Q9NYV4); conditions: kinase CDK12/CycK, ATP 0,3 µM, singlicate
T5 construct: purchased Reaction Biology (assay service)
Procedure: as §1

[6] = biological target: T6, 350 wild-type kinases (Homo sapiens, UniProt Q15131); conditions: kinase CDK10/CycQ, ATP 3 µM, singlicate
T6 construct: purchased Reaction Biology (assay service)
Procedure: as §1

[7] = biological target: T7, 350 wild-type kinases (Homo sapiens, UniProt O14965); conditions: kinase AuroraA, ATP 10 µM, singlicate
T7 construct: purchased Reaction Biology (assay service)
Procedure: as §1

[8] = biological target: T8, 350 wild-type kinases (Homo sapiens, UniProt P51813); conditions: kinase BMX, ATP 1 µM, singlicate
T8 construct: purchased Reaction Biology (assay service)
Procedure: as §1

[9] = biological target: T9, 350 wild-type kinases (Homo sapiens, UniProt Q00534); conditions: singlicate; for Residual activity (% of control), CDK6/CycD1: kinase CDK6/CycD1, ATP 3 µM; for Residual activity (% of control), CDK6/CycD2: kinase CDK6/CycD2, ATP 10 µM; for Residual activity (% of control), CDK6/CycD3: kinase CDK6/CycD3, ATP 30 µM
T9 construct: purchased Reaction Biology (assay service)
Procedure: as §1

[10] = biological target: T10, 350 wild-type kinases (Homo sapiens, UniProt Q00537); conditions: kinase CDK17/p35NCK, ATP 3 µM, singlicate
T10 construct: purchased Reaction Biology (assay service)
Procedure: as §1

[11] = biological target: T11, 350 wild-type kinases (Homo sapiens, UniProt P49759); conditions: kinase CLK1, ATP 0,3 µM, singlicate
T11 construct: purchased Reaction Biology (assay service)
Procedure: as §1

[12] = biological target: T12, 350 wild-type kinases (Homo sapiens, UniProt Q07912); conditions: kinase ACK1, ATP 1 µM, singlicate
T12 construct: purchased Reaction Biology (assay service)
Procedure: as §1

[13] = biological target: T13, 350 wild-type kinases (Homo sapiens, UniProt O14757); conditions: kinase CHK1, ATP 1 µM, singlicate
T13 construct: purchased Reaction Biology (assay service)
Procedure: as §1

[14] = biological target: T14, 350 wild-type kinases (Homo sapiens, UniProt Q07002); conditions: kinase CDK18/CycY, ATP 1 µM, singlicate
T14 construct: purchased Reaction Biology (assay service)
Procedure: as §1

[15] = biological target: T15, 350 wild-type kinases (Homo sapiens, UniProt Q96Q40); conditions: singlicate; for Residual activity (% of control), CDK15/CycA2: kinase CDK15/CycA2, ATP 1 µM; for Residual activity (% of control), CDK15/CycB1: kinase CDK15/CycB1, ATP 0,3 µM
T15 construct: purchased Reaction Biology (assay service)
Procedure: as §1

[16] = biological target: T16, 350 wild-type kinases (Homo sapiens, UniProt P00519); conditions: kinase ABL1, ATP 0,3 µM, singlicate
T16 construct: purchased Reaction Biology (assay service)
Procedure: as §1

[17] = biological target: T17, 350 wild-type kinases (Homo sapiens, UniProt P30530); conditions: kinase AXL, ATP 0,3 µM, singlicate
T17 construct: purchased Reaction Biology (assay service)
Procedure: as §1

[18] = biological target: T18, 350 wild-type kinases (Homo sapiens, UniProt P49761); conditions: kinase CLK3, ATP 0,3 µM, singlicate
T18 construct: purchased Reaction Biology (assay service)
Procedure: as §1

[19] = biological target: T19, 350 wild-type kinases (Homo sapiens, UniProt P36894); conditions: kinase BMPR1A, ATP 3 µM, singlicate
T19 construct: purchased Reaction Biology (assay service)
Procedure: as §1

[20] = biological target: T20, 350 wild-type kinases (Homo sapiens, UniProt Q13555); conditions: kinase CAMK2G, ATP 1 µM, singlicate
T20 construct: purchased Reaction Biology (assay service)
Procedure: as §1

[21] = biological target: T21, 350 wild-type kinases (Homo sapiens, UniProt Q16832); conditions: kinase DDR2, ATP 0,1 µM, singlicate
T21 construct: purchased Reaction Biology (assay service)
Procedure: as §1

[22] = biological target: T22, 350 wild-type kinases (Homo sapiens, UniProt Q9BWU1); conditions: kinase CDK19/CycC, ATP 3 µM, singlicate
T22 construct: purchased Reaction Biology (assay service)
Procedure: as §1

[23] = biological target: T23, 350 wild-type kinases (Homo sapiens, UniProt P41279); conditions: kinase COT, ATP 0,3 µM, singlicate
T23 construct: purchased Reaction Biology (assay service)
Procedure: as §1

T9 sequence (Q00534 whole entry): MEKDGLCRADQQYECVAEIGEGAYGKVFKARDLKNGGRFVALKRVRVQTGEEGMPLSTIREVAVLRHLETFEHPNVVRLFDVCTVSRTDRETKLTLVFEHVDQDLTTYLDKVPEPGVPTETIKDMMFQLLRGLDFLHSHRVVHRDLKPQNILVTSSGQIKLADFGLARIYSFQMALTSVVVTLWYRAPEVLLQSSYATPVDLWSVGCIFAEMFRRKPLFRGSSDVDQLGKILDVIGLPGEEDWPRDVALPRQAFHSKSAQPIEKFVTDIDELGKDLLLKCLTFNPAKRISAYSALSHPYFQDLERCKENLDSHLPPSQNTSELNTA
T15 sequence (Q96Q40 whole entry): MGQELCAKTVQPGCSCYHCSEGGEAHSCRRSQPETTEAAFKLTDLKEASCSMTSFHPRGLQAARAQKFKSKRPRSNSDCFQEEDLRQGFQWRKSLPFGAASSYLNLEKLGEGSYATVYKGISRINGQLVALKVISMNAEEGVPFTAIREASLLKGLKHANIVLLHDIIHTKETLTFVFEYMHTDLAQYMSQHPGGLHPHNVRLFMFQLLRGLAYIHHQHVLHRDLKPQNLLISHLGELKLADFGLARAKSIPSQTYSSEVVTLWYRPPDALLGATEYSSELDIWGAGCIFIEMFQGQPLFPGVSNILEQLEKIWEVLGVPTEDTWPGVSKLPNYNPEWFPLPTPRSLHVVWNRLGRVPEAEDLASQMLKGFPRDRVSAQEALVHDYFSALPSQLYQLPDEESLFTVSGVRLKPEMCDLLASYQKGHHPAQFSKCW
T5 sequence (Q9NYV4 whole entry): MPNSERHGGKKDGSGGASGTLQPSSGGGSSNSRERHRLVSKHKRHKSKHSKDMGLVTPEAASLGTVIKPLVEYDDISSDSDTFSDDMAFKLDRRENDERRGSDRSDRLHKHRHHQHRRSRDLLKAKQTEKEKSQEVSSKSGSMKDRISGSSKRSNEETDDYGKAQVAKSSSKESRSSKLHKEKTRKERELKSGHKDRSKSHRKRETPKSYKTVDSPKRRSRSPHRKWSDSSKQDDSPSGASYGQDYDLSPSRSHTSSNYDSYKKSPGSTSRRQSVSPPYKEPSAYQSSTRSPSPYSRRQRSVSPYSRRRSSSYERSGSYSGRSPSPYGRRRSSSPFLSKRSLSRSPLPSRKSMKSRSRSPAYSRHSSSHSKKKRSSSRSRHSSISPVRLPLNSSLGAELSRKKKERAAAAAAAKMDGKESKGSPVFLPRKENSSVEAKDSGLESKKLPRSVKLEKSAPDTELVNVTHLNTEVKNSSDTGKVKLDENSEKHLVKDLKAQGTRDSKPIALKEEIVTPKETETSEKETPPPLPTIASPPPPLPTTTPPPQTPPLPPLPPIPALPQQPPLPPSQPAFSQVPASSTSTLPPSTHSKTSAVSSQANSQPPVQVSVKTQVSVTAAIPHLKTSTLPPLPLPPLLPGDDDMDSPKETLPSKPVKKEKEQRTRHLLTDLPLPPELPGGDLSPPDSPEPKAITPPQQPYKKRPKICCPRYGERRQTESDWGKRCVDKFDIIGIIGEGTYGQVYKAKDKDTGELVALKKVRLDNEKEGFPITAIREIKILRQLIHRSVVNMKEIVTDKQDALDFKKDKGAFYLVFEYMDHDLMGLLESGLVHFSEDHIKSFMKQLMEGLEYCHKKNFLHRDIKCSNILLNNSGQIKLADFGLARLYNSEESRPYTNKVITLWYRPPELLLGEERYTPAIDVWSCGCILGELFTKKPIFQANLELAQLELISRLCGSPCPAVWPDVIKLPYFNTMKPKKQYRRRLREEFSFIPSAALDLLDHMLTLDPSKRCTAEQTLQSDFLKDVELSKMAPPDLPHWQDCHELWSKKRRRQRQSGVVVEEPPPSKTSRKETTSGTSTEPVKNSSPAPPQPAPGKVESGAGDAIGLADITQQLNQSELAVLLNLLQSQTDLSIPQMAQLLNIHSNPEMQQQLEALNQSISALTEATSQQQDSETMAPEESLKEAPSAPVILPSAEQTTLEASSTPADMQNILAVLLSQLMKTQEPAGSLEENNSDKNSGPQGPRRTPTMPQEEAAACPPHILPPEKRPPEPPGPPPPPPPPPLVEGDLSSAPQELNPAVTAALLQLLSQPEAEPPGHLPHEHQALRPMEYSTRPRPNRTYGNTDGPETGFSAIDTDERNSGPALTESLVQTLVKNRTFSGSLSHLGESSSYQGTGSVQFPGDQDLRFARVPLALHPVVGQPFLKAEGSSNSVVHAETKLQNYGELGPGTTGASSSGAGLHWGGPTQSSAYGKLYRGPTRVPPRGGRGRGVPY
T3 sequence (O00238 14-502): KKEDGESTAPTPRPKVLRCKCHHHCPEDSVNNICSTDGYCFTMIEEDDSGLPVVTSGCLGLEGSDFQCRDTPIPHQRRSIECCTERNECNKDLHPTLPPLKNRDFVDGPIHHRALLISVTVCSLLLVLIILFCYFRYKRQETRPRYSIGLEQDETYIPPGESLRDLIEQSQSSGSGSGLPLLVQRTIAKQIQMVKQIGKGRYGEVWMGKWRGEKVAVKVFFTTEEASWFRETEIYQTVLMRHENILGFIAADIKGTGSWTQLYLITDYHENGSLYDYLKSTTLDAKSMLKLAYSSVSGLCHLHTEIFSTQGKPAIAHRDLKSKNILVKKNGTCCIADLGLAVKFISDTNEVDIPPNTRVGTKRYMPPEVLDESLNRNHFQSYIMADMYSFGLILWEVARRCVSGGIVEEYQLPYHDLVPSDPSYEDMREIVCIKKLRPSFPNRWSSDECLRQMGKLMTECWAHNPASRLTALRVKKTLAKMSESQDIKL
T6 sequence (Q15131 whole entry): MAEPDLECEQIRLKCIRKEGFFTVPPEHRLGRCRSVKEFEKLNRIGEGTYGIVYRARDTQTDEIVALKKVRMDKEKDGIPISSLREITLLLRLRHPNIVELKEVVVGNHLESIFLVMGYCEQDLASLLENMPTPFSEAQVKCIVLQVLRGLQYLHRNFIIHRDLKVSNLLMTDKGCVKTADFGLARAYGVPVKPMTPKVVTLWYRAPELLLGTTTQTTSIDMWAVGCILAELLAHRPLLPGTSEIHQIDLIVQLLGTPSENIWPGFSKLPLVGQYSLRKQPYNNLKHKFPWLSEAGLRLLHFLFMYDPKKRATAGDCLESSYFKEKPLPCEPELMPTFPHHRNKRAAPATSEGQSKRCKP
T17 sequence (P30530 26-894): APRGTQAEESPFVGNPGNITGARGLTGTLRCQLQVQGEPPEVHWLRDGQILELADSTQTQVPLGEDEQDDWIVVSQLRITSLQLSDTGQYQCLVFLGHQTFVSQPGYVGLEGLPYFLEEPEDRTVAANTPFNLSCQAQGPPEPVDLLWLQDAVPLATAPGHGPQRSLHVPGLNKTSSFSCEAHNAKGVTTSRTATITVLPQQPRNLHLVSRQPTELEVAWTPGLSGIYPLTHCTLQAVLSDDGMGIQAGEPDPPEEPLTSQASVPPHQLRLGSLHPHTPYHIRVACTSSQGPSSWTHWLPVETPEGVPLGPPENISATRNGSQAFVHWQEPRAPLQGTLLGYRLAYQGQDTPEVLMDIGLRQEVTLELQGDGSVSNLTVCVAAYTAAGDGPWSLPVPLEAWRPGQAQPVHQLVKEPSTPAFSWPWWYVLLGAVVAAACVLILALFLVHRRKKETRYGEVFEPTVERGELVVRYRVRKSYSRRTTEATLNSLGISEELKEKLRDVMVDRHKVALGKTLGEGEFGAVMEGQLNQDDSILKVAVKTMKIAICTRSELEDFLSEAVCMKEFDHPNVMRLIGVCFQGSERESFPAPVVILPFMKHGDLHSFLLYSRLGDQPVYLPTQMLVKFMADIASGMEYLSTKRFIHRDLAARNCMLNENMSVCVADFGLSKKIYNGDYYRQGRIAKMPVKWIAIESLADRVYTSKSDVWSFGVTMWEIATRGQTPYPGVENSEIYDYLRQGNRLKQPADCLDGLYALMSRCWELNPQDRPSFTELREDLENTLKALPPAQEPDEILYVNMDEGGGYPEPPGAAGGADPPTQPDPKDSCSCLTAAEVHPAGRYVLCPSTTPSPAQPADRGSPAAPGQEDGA
T23 sequence (P41279 whole entry): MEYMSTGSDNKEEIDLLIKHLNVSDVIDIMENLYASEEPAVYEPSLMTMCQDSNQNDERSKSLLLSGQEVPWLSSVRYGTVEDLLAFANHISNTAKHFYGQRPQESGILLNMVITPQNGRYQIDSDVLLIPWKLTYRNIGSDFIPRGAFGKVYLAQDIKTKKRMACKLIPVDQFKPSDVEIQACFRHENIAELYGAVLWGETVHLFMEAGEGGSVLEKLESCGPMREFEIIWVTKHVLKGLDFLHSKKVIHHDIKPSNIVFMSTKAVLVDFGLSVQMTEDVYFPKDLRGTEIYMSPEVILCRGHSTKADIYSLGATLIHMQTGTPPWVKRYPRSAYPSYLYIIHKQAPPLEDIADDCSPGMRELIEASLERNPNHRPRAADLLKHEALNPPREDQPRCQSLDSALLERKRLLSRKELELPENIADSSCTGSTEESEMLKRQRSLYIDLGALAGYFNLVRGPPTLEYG
T20 sequence (Q13555 whole entry): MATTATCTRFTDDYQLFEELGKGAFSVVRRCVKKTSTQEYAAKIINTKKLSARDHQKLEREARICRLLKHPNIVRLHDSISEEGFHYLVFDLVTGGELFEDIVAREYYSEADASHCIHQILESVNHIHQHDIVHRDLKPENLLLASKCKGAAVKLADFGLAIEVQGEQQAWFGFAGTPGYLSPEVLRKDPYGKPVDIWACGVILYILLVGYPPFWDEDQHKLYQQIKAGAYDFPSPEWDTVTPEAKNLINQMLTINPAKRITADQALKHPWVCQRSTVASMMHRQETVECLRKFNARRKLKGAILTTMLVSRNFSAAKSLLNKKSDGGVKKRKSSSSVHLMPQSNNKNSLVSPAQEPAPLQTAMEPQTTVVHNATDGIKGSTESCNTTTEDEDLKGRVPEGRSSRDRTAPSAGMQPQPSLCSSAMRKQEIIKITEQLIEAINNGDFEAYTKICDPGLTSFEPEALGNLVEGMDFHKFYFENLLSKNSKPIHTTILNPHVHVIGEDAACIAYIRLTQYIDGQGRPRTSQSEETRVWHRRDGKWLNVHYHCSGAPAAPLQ

## CCSc1nc(NC)c2c(-c3cccc(NC(=O)Nc4cc(C(C)(C)C)nn4-c4ccc(C)cc4)c3)c[nH]c2n1 [Compound 32]
[1]; Assay Conc. 1.0E-05 M
  Residual activity (% of control), ABL2: 73 % of control
[1]; Assay Conc. 1.0E-06 M
  Residual activity (% of control), ABL2: 107 % of control
[2]; Assay Conc. 1.0E-05 M
  Residual activity (% of control), CDC7/DBF4: 50 % of control
[2]; Assay Conc. 1.0E-06 M
  Residual activity (% of control), CDC7/DBF4: 89 % of control
[3]; Assay Conc. 1.0E-05 M
  Residual activity (% of control), BMPR1B: 102 % of control
[3]; Assay Conc. 1.0E-06 M
  Residual activity (% of control), BMPR1B: 109 % of control
[4]; Assay Conc. 1.0E-05 M
  Residual activity (% of control), CDK14/CycY: 75 % of control
[4]; Assay Conc. 1.0E-06 M
  Residual activity (% of control), CDK14/CycY: 102 % of control
[5]; Assay Conc. 1.0E-05 M
  Residual activity (% of control), CDK12/CycK: 87 % of control
[5]; Assay Conc. 1.0E-06 M
  Residual activity (% of control), CDK12/CycK: 99 % of control
[6]; Assay Conc. 1.0E-05 M
  Residual activity (% of control), CDK10/CycQ: 71 % of control
[6]; Assay Conc. 1.0E-06 M
  Residual activity (% of control), CDK10/CycQ: 98 % of control
[7]; Assay Conc. 1.0E-05 M
  Residual activity (% of control), AuroraA: 74 % of control
[7]; Assay Conc. 1.0E-06 M
  Residual activity (% of control), AuroraA: 96 % of control
[8]; Assay Conc. 1.0E-05 M
  Residual activity (% of control), BMX: 68 % of control
[8]; Assay Conc. 1.0E-06 M
  Residual activity (% of control), BMX: 109 % of control
[9]; Assay Conc. 1.0E-05 M
  Residual activity (% of control), CDK6/CycD1: 74 % of control
  Residual activity (% of control), CDK6/CycD2: 80 % of control
  Residual activity (% of control), CDK6/CycD3: 73 % of control
[9]; Assay Conc. 1.0E-06 M
  Residual activity (% of control), CDK6/CycD1: 127 % of control
  Residual activity (% of control), CDK6/CycD2: 109 % of control
  Residual activity (% of control), CDK6/CycD3: 94 % of control
[10]; Assay Conc. 1.0E-05 M
  Residual activity (% of control), CDK17/p35NCK: 53 % of control
[10]; Assay Conc. 1.0E-06 M
  Residual activity (% of control), CDK17/p35NCK: 89 % of control
[11]; Assay Conc. 1.0E-05 M
  Residual activity (% of control), CLK1: 54 % of control
[11]; Assay Conc. 1.0E-06 M
  Residual activity (% of control), CLK1: 86 % of control
[12]; Assay Conc. 1.0E-05 M
  Residual activity (% of control), ACK1: 74 % of control
[12]; Assay Conc. 1.0E-06 M
  Residual activity (% of control), ACK1: 90 % of control
[13]; Assay Conc. 1.0E-05 M
  Residual activity (% of control), CHK1: 72 % of control
[13]; Assay Conc. 1.0E-06 M
  Residual activity (% of control), CHK1: 110 % of control
[14]; Assay Conc. 1.0E-05 M
  Residual activity (% of control), CDK18/CycY: 73 % of control
[14]; Assay Conc. 1.0E-06 M
  Residual activity (% of control), CDK18/CycY: 110 % of control
[15]; Assay Conc. 1.0E-05 M
  Residual activity (% of control), CDK15/CycA2: 92 % of control
  Residual activity (% of control), CDK15/CycB1: 86 % of control
[15]; Assay Conc. 1.0E-06 M
  Residual activity (% of control), CDK15/CycA2: 116 % of control
  Residual activity (% of control), CDK15/CycB1: 98 % of control
[16]; Assay Conc. 1.0E-05 M
  Residual activity (% of control), ABL1: 70 % of control
[16]; Assay Conc. 1.0E-06 M
  Residual activity (% of control), ABL1: 102 % of control
[17]; Assay Conc. 1.0E-05 M
  Residual activity (% of control), AXL: 59 % of control
[17]; Assay Conc. 1.0E-06 M
  Residual activity (% of control), AXL: 94 % of control
[18]; Assay Conc. 1.0E-05 M
  Residual activity (% of control), CLK3: 66 % of control
[18]; Assay Conc. 1.0E-06 M
  Residual activity (% of control), CLK3: 90 % of control
[19]; Assay Conc. 1.0E-05 M
  Residual activity (% of control), BMPR1A: 85 % of control
[19]; Assay Conc. 1.0E-06 M
  Residual activity (% of control), BMPR1A: 97 % of control
[20]; Assay Conc. 1.0E-05 M
  Residual activity (% of control), CAMK2G: 122 % of control
[20]; Assay Conc. 1.0E-06 M
  Residual activity (% of control), CAMK2G: 106 % of control
[21]; Assay Conc. 1.0E-05 M
  Residual activity (% of control), DDR2: 20 % of control
[21]; Assay Conc. 1.0E-06 M
  Residual activity (% of control), DDR2: 79 % of control
[22]; Assay Conc. 1.0E-05 M
  Residual activity (% of control), CDK19/CycC: 54 % of control
[22]; Assay Conc. 1.0E-06 M
  Residual activity (% of control), CDK19/CycC: 97 % of control
[23]; Assay Conc. 1.0E-05 M
  Residual activity (% of control), COT: 69 % of control
[23]; Assay Conc. 1.0E-06 M
  Residual activity (% of control), COT: 96 % of control
